Where a name gives a salt, the structure may show the parent alone. Marks after values point to notes of the source that are not given here.
Legend:
[1] = test system: pBR322 plasmid DNA; assay: Plasmid relaxation assay for DNA photocleavage; type: biochemical; conditions: 30 μM/base pair pBR322, pH 6, 7 and 8; for DNA cleavage efficiency: 15 μM lysine conjugate
Method: The present invention is additionally directed to methods of forming a double strand cleavage in DNA, wherein compounds having the above Structures are contacted with and bind to double stranded DNA. The pH-dependency of DNA-cleavage of the two bis-lysine conjugates was investigated. The top of FIGS. 6A and 6B depicts the results of the plasmid relaxation assay for DNA photocleavage with 15 μM of acetylenic conjugates (3) (FIG. 6A) and (5) (FIG. 6B) and […] (b.p.) of pBR322 plasmid DNA at pH range of 6-9 after 10 min. of UV (>310 nm) irradiation. The bottom of each of FIGS. 6A and 6B are graphs of quantified cleavage data as a function of pH for conjugates (3) (FIG. 6A) and (5) (FIG. 6B). The reported values represent the average of three experiments. Code: Form I, diamond; Form II, square; Form III, triangle.
The plasmid relaxation assay experiments were carried out on 15 μM of lysine conjugate with 30 μM/base pair of pBR322 plasmid DNA at pH 6, 7 and 8.
Plasmid DNA Photocleavage. pBR322 plasmid DNA (4,361 bp; from BioLabs Inc., 1 μg/μL solution in 10 mM Tris-HCl (pH 8.0), and 1mM EDTA buffer) was diluted to a concentration of 0.01 μg/μL. The solution containing cleavage agent, DNA (30 μM/bp) in 20 mM sodium phosphate buffer was incubated for 1 hour at 30° C. Samples were placed on ice at a distance of 20 cm from 200 W Hg—Xe lamp (Spectra-Physics, Laser & Photonics Oriel Instruments with long pass filter with 300 nm cut-on wavelength).
Electrophoretic Analysis. The gel electrophoresis was carried out in lx TBE buffer at 80 V using Miligel FisherBiotech Horizontal Electrophoresis System. All gels were run on 1% agarose slab gels. Before loading, the DNA samples were mixed with 0.33 volume of tracking dye containing bromophenol blue (0.25%) and glycerol (30%) in water. After staining in ethidium bromide solution (2 μg/mL) for 1 hour, the gel was washed with water and pictures were taken. The relative quantities of the supercoiled, nicked, and linear DNA were calculated by integrating the “area” of each spot by the image analyzer software Total/Lab (Nonlinear Dynamics Ltd., UK). […]

[2] = from Carey, Organic Chemistry, 6th ed.; cited from earlier work
[3] = Fluorescence quenching by triethylamine (Stern-Volmer); type: physicochemical; conditions: Et3N as a quencher; determined from Ksv and singlet lifetime
Method: The fluorescence quenching by triethylamine (Et3N) was tested in order to gauge relative efficiencies of these compounds as DNA photo-oxidizers. […] The measured singlet lifetimes allowed us to determine the quenching rate constant, kq, which in this system, should be very close in magnitude to the rate of electron transfer, kET. The 2-3-fold increase in the rate of electron transfer from Et3N to excited singlet state of the meta- and ortho-isomers in comparison to the para-isomer is consistent with the well-known photochemical ortho, meta effect of an acceptor substituent. See Zimmerman, H. E., The Meta Effect in Organic Photochemistry: Mechanistic and Exploratory Organic Photochemistry, J. Am. Chem. Soc., 1995, 117, 8988-8991. doi: 10.1021/ja00140a014 and Zimmerman, H. E.; Alabugin, I. V. J. Am. Chem. Soc. 2001, […]. doi: 10.1021/ja002402c.

[4] = test system: DNA; conditions: literature value; cited from earlier work
[5] = test system: A375 cells (Human Melanoma); assay: Cell proliferation (MTT) assay; type: cell-based; conditions: A375, after 10 min UV irradiation at 360 nm
Method: The ability of compounds (15), (16), and (17) to inhibit cell proliferation in human melanoma cell lines was tested in the dark and under photoactivation. See FIGS. 9A and 9B, which depict cell proliferation assays in A375 cells (Human Melanoma) exposed to bis-lysine conjugates (15) (square), (16) (up-pointing triangle) and (17) (down-pointing triangle) in dark (FIG. 9A) and after 10 min. of UV (360 nm) irradiation (FIG. 9B).
MTT Assay. A375 cells were seeded at 2000 cells per well in a 96-well plate. Seven 2-fold serial dilutions of the compounds were added to the cells in triplicate. Concentrations were from 1 to 0.016 μM of compounds. After 4 hs of incubation with the compounds, cells were UV-irradiated for ten minutes at 365 nm (UV transluminator, Spectronomics Corp. model TR-365R). After 72hs of incubation, MTT (Sigma® cat#M2128) was added to cells to a final concentration of 1.25 mg/mL and incubated for 60 minutes. Cells were centrifuged at 900 g for 5 minutes at room temperature. Media was replaced with DMSO and absorbance will be measured in a plate reader at 570 nm.

In the case of `NCCCC[C@H](N)C(=O)Nc1cccc(C#Cc2c(F)c(F)nc(F)c2F)c1` [(16), (S)-2,6-Diamino-N-(3-((perfluoropyridin-4-yl)ethynyl)phenyl)hexanamide Dihydrochloride], the DNA cleavage efficiency [1] is reported as “less DNA cleavage than conjugate (15)”.

For `NCCCC[C@H](N)C(=O)O` [Lysine], the pKa1 [2] is given as 8.95^b and the pKa2 [2] is given as 10.53^b.

`CC(=O)Nc1cccc(C#Cc2c(F)c(F)nc(F)c2F)c1` [(4) (meta), N-(3-((Perfluoropyridin-4-yl)ethynyl)phenyl)acetamide] gave a kq (quenching rate constant) [3] of 1.36e+10 M⁻¹ s⁻¹.

For `CC(=O)Nc1ccccc1C#Cc1c(F)c(F)nc(F)c1F` [(5) (ortho), N-(2-((Perfluoropyridin-4-yl)ethynyl)phenyl) acetamide], the kq (quenching rate constant) [3] was 1.43e+10 M⁻¹ s⁻¹.

In the case of calicheamicin, the “double strand breaks formed” value [4] is listed as 25-33%.

For `NCCCC[C@H](N)C(=O)Nc1ccccc1C#Cc1c(F)c(F)nc(F)c1F` [(17), (S)-2,6-Diamino-N-(2-((perfluoropyridin-4-yl)ethynyl)phenyl)hexanamide Dihydrochloride], the DNA cleavage efficiency [1] was “least efficient DNA cleavage”, the double-strand breaks ([1]; 15 μM) was “has not produced any double-strand breaks” and the phototoxicity [5] was “some phototoxicity”.

With `CC(=O)Nc1ccc(C#Cc2c(F)c(F)nc(F)c2F)cc1` [(3) (para), N-(4-((Perfluoropyridin-4-yl)ethynyl)phenyl)acetamide] the kq (quenching rate constant) [3] was 5.64e+09 M⁻¹ s⁻¹.
